# Measurements reported in patent publication US9274101B2 (BIOLOG, Inc., priority 2001, dated 2016).
# Like-named read-outs stand apart in the source and are kept apart here. Where a SMILES comes first, the peptide text is derived from it. Bridges are numbered along the chain shown (N, C = ends). [ ]: non-standard residue; d: D form. The star is where a group is joined. Ileψ(thiazoline)Cys = CC[C@H](C)[C@H](N)C1=N[C@H](C(=O)*)CS1; dOrn = NCCC[C@@H](N)C(=O)O
# How the values were obtained:
# HepG2 cells = HepG2 cells cultured on CYTODEX 3 microcarriers, energy sources; type: cell-based, human; details: Homo sapiens, HepG2, 68 h, read-out: Responses of HepG2 Cells Cultured on Microcarriers After 68 hours in Culture and a 4 hour Color Development Period
# Procedure: In this Example, methods for testing adherent cells cultured in suspension, for their ability to use multiple carbon sources are described. HepG2 cells were cultured as described in Example 30.
# HepG2 cells were harvested by trypsinization for 3 minutes in 0.25% trypsin-1 mM EDTA and resuspended in an equal volume of culture medium. A viable cell count was obtained by trypan blue exclusion and the appropriate volume of the cell suspension to have 2.7×10^6 cells/0.1 gm CYTODEX 3 (Sigma C3275) microcarrier beads was determined. Microcarrier beads had been previously prepared by 1) rehydration in calcium-magnesium free (CMF) DPBS for 3 hours, 2) autoclaving for 15 minutes, and 3) washing twice in MEM without serum. The cell suspension was added to the beads in a 50 mL tube, and the volume adjusted to 5 mL. Cells were allowed to attach for 1 hour in an atmosphere of 5% CO2, 90-100% humidity, and 37° C., with resuspension every 15 minutes. The microcarriers were transferred to a 100×15 mm Petri dish in a total volume of 20 mL. Cultures were maintained as stationary cultures until used for assay.
# The thixotropic suspending agent, methylcellulose (1500 cps, Sigma M0555), was included in the medium to keep the microcarriers suspended so that they could be accurately pipetted. The methylcellulose was prepared by autoclaving in 20 mL tissue culture water for 30 minutes, then mixing by shaking for 1 hour. The initial concentration of methylcellulose was […]. The methylcellulose was then diluted 1:1 in 2× DME with or without glucose, then supplemented with 10% HI FBS; this yields a methylcellulose concentration of 1.36%. Beads were transferred to a 50 mL tube, allowed to settle and resuspended in DPBS. The washed beads were then resuspended in DME with 10% HI FBS and penicillin-streptomycin but without glucose, L-glutamine, sodium pyruvate, or phenol red. An equal volume of 1.36% methylcellulose was added and mixed by pipetting.
# For the assay, 70 μL of DME with 10% HI FBS and penicillin-streptomycin but without glucose, L-glutamine, sodium pyruvate, or phenol red were added to each well, followed by 30 μL of the appropriate dilution of each test energy source. Stocks of 133 mM of each test chemical were prepared in tissue culture grade water, sterile filtered, and dilutions were prepared in a master plate so that, upon dilution into a regular 96-well MICROPLATE a total well volume of 200 μL, the final concentrations would be 0.033 to 20 mM. Negative control wells received 30 μL of tissue culture grade water. One hundred μL of beads were pipetted into each well. For each plate containing energy sources and cells, a second, control plate containing only energy sources was prepared. Plates were incubated at 5% CO2, 90-100% humidity, and 37° C. for 68 hours prior to addition of the MTS/MPMS colorometric reagent (10 μL/well). The color formed in each well 4-8 hours after addition of the colorimetric reagent, was measured with a plate reader at 490 nm with a reference wavelength of 650 nm. OD values from the control plate were subtracted from the OD values obtained with cells prior to normalizing the data to % negative control (cells without added energy source).
# [1] = system: Salmonella typhimurium auxotrophs hisF645 and pyrCΔ73; type: cell-based
# E. coli MG1655 [2] = type: cell-based, Escherichia coli
# ten strains of E. coli = type: cell-based, Escherichia coli; also: key: +: indicates that the organism tested was capable of utilizing the carbon source listed; −: indicates that the organism tested was not capable of utilizing the carbon source listed; indicates weak positive reactions
# E. coli MG1655 [3] = type: cell-based, Escherichia coli; remark: listed apart in the source
# E. coli (MG1655) = assay: Sensitivity in ES1, ES2, ES3 MICROPLATE panels in the presence of vancomycin or sulfamethoxazole (synergy/antagonism); type: cell-based, Escherichia coli
# E. coli MG1655 [4] = assay: PM kinetic profiles of antimicrobials, S-O-R scoring and dendrogram; type: cell-based, Escherichia coli
# [5] = 1× level of each antimicrobial, 7 PMs, 48 hours
# [6] = in the presence of 235 μg/ml sulfamethoxazole
# [7] = in the presence of 10 μg/ml vancomycin
compound,measurement,setting,value
O=c1ccn([C@@H]2O[C@H](CO)[C@@H](O)[C@H]2O)c(=O)[nH]1 [Uridine],activity at 30 µM,HepG2 cells; Conc. 0.03 mM,102%
same,activity at 100 µM,HepG2 cells; Conc. 0.10 mM,109%
same,activity at 330 µM,HepG2 cells; Conc. 0.33 mM,99%
same,activity at 1000 µM,HepG2 cells; Conc. 1.00 mM,109%
same,activity at 3300 µM,HepG2 cells; Conc. 3.3 mM,106%
same,activity at 10000 µM,HepG2 cells; Conc. 10 mM,94.8%
same,activity at 15000 µM,HepG2 cells; Conc. 15 mM,74.1%
same,activity at 20000 µM,HepG2 cells; Conc. 20 mM,31.9%
same,growth stimulation (well color),[1],turned purple
same,"suitability as nitrogen source (growth, purple color)",E. coli MG1655 [2],not suitable
same,carbon source utilization,ten strains of E. coli,+
Nc1ncnc2c1ncn2[C@@H]1O[C@H](CO)[C@@H](OP(=O)(O)O)[C@H]1O [adenosine 3-monophosphate],growth stimulation (well color),[1],turned weakly purple
same,"suitability as phosphorus source (growth, purple color)",E. coli MG1655 [3],positive
Nc1ncnc2c1ncn2[C@@H]1O[C@H](COP(=O)(O)O)[C@@H](O)[C@H]1O [adenosine 5′-monophosphate],growth stimulation (well color),[1],turned weakly purple
same,"suitability as phosphorus source (growth, purple color)",E. coli MG1655 [3],not suitable
Nc1ncnc2c1ncn2[C@@H]1O[C@H](CO)[C@@H](O)[C@H]1OP(=O)(O)O [adenosine-2′-monophosphate],growth stimulation (well color),[1],turned weakly purple
same,"suitability as phosphorus source (growth, purple color)",E. coli MG1655 [3],positive
O=[N+]([O-])c1ncc[nH]1 [azomycin],change of sensitivity to the panel compound,E. coli (MG1655),increased sensitivity
CC[C@H](C)[C@H](N)C1=N[C@H](C(=O)N[C@@H](CC(C)C)C(=O)N[C@H](CCC(=O)O)C(=O)N[C@H](C(=O)N[C@H]2CCCCNC(=O)[C@H](CC(N)=O)NC(=O)[C@@H](CC(=O)O)NC(=O)[C@H](Cc3cnc[nH]3)NC(=O)[C@@H](Cc3ccccc3)NC(=O)[C@H]([C@@H](C)CC)NC(=O)[C@@H](CCCN)NC2=O)[C@@H](C)CC)CS1 [bacitracin] ({Ileψ(thiazoline)Cys}-L[dE]IK[dOrn]I[dF]H[dD]N; lactam 4-C),position in dendrogram of PM response profiles (FIG. 9),E. coli MG1655 [4]; [5],cluster
N[C@@H](C(=O)N[C@@H]1C(=O)N2C(C(=O)O)=C(Cl)CS[C@H]12)c1ccccc1 [cefaclor],change of sensitivity to the panel compound,E. coli (MG1655); [6],increased sensitivity
Cc1nnc(SCC2=C(C(=O)O)N3C(=O)[C@@H](NC(=O)Cn4cnnn4)[C@H]3SC2)s1 [cefazolin],change of sensitivity to the panel compound,E. coli (MG1655); [7],increased sensitivity
same,change of sensitivity to the panel compound,E. coli (MG1655); [6],increased sensitivity
CO[C@@]1(NC(=O)Cc2cccs2)C(=O)N2C(C(=O)O)=C(COC(N)=O)CS[C@@H]21 [cefoxitin],change of sensitivity to the panel compound,E. coli (MG1655); [7],increased sensitivity
NC(=O)c1cc[n+](CC2=C(C(=O)O)N3C(=O)[C@@H](NC(=O)[C@@H](c4ccccc4)S(=O)(=O)[O-])[C@H]3SC2)cc1 [cefsulodin],change of sensitivity to the panel compound,E. coli (MG1655); [6],increased sensitivity
O=C(Cc1cccs1)N[C@@H]1C(=O)N2C(C(=O)[O-])=C(C[n+]3ccccc3)CS[C@H]12 [cephaloridine],change of sensitivity to the panel compound,E. coli (MG1655); [6],increased sensitivity
C/C=C/C/C=C/CCC(=O)[C@H]1O[C@H]1C(N)=O [cerulenin],position in dendrogram of PM response profiles (FIG. 9),E. coli MG1655 [4]; [5],more closely resembled the multiple target antimicrobials
[Cl][Cr]([Cl])[Cl] [chromium chloride],change of sensitivity to the panel compound,E. coli (MG1655),increased sensitivity
[Cl][Co][Cl] [cobalt chloride],change of sensitivity to the panel compound,E. coli (MG1655),increased sensitivity
Nc1ccn([C@@H]2O[C@H](CO)[C@@H](O)[C@H]2OP(=O)(O)O)c(=O)n1 [cytidine 2′-monophosphate],growth stimulation (well color),[1],turned purple
same,"suitability as phosphorus source (growth, purple color)",E. coli MG1655 [3],not suitable
Nc1ccn([C@@H]2O[C@H](CO)[C@@H](OP(=O)(O)O)[C@H]2O)c(=O)n1 [cytidine 3′-monophosphate],growth stimulation (well color),[1],turned purple
same,"suitability as phosphorus source (growth, purple color)",E. coli MG1655 [3],positive
Nc1ccn([C@@H]2O[C@H](COP(=O)(O)O)[C@@H](O)[C@H]2O)c(=O)n1 [cytidine 5′-monophosphate],growth stimulation (well color),[1],turned purple
same,"suitability as phosphorus source (growth, purple color)",E. coli MG1655 [3],positive
CC(=O)O[C@H]1C[C@@]2(C)[C@@H](C[C@@H](O)[C@H]3[C@@]4(C)CC[C@@H](O)[C@@H](C)[C@@H]4CC[C@@]32C)/C1=C(\CCC=C(C)C)C(=O)O [fusidic acid],change of sensitivity to the panel compound,E. coli (MG1655); [7],increased sensitivity
Nc1nc2c(ncn2[C@@H]2O[C@H](CO)[C@@H](O)[C@H]2OP(=O)(O)O)c(=O)[nH]1 [guanosine 2′-monophosphate],growth stimulation (well color),[1],turned weakly purple
same,"suitability as phosphorus source (growth, purple color)",E. coli MG1655 [3],positive
Nc1nc2c(ncn2[C@@H]2O[C@H](COP(=O)(O)O)[C@@H](O)[C@H]2O)c(=O)[nH]1 [guanosine 5′-monophosphate],growth stimulation (well color),[1],turned weakly purple
same,"suitability as phosphorus source (growth, purple color)",E. coli MG1655 [3],positive
[Cl][Ni][Cl] [nickel chloride],change of sensitivity to the panel compound,E. coli (MG1655),increased sensitivity
CO[C@@H]1[C@@H](OC(N)=O)[C@@H](O)[C@H](Oc2ccc3c(O)c(NC(=O)c4ccc(O)c(CC=C(C)C)c4)c(=O)oc3c2C)OC1(C)C [novobiocin],change of sensitivity to the panel compound,E. coli (MG1655),increased resistance
same,change of sensitivity to the panel compound,E. coli (MG1655); [7],increased sensitivity
CCn1cc(C(=O)O)c(=O)c2cc3c(cc21)OCO3 [oxolinic acid],position in dendrogram of PM response profiles (FIG. 9),E. coli MG1655 [4]; [5],clustered
C[C@@H]1O[C@@H]1P(=O)(O)O [phosphomycin],position in dendrogram of PM response profiles (FIG. 9),E. coli MG1655 [4]; [5],cluster
[H]/N=C(/N)N[C@H]1[C@H](O)[C@@H](O)[C@H](O[C@@H]2O[C@@H](C)[C@](O)(C=O)[C@H]2O[C@@H]2O[C@@H](CO)[C@H](O)[C@@H](O)[C@@H]2NC)[C@@H](N/C(N)=N\[H])[C@@H]1O [streptomycin],position in dendrogram of PM response profiles (FIG. 9),E. coli MG1655 [4]; [5],cluster
Nc1ccc(S(=O)(=O)Nc2nccs2)cc1 [sulfathiazole],position in dendrogram of PM response profiles (FIG. 9),E. coli MG1655 [4]; [5],more closely resembled the multiple target antimicrobials
COc1cc(Cc2cnc(N)nc2N)cc(OC)c1OC [trimethoprim],change of sensitivity to the panel compound,E. coli (MG1655); [7],increased sensitivity
same,change of sensitivity to the panel compound,E. coli (MG1655); [6],increased sensitivity
O=c1ccn([C@@H]2O[C@H](CO)[C@@H](OP(=O)(O)O)[C@H]2O)c(=O)[nH]1 [uridine 3′-monophosphate],growth stimulation (well color),[1],turned purple
same,"suitability as phosphorus source (growth, purple color)",E. coli MG1655 [3],positive
O=c1ccn([C@@H]2O[C@H](COP(=O)(O)O)[C@@H](O)[C@H]2O)c(=O)[nH]1 [uridine 5′-monophosphate],growth stimulation (well color),[1],turned purple
same,"suitability as phosphorus source (growth, purple color)",E. coli MG1655 [3],positive
coumermycin,position in dendrogram of PM response profiles (FIG. 9),E. coli MG1655 [4],clustered
polymyxin B,position in dendrogram of PM response profiles (FIG. 9),E. coli MG1655 [4],more closely resembled the multiple target antimicrobials
